Experimental data taken from patent US20260159536A1, “AKR1C3-ACTIVATED DNA ALKYLATING AGENT, AND MEDICAL APPLICATION THEREOF” (ASCENTAWITS PHARMACEUTICALS, LTD., priority 2021, published 2026).

Experiments:
[1] = Chiral stability under long-term and accelerated storage conditions; type: physicochemical
Description: Isomer stability under long-term and accelerated conditions was studied.
Compound A and isomers A-P1 and A-P2 were investigated for traits and isomeric stability at −20±5° C., 5° C.±3° C., 25° C.±2° C. (60%±5% RH) and 40° C.±2° C.

[2] = system: SNU354; assay: Cytotoxicity on hepatocellular carcinoma cell line SNU354; type: cell-based
Description: If not otherwise specified, IC50 values were measured by the following experimental methods:
a) Cells were plated for 24 hours, and then the compounds acted singly. 99 μL of growth medium was supplemented per well, and then 1 μL of 200× compound was added, gently shaken to ensure uniform mixing, and then placed in a 37° C., 5% CO2 incubator.
b) The cell plate was placed in the incubator for 72 hours.
b) 100 μL of CTG reagent (CelltiterGlo kit) was added to each well, the plate was placed in a rapid oscillator and shaken for 2 minutes, and then placed at room temperature for 30 minutes away from light.
The IC50 was calculated using GraphPad Prism 8 software and the IC50 (half inhibitory concentration) of the compounds was obtained using the following non-linear fitting formula: […]
Using the same experimental methods as described above, Compounds A, B and C were further tested for cytotoxicity against different hepatocellular carcinoma (HCC) cell lines SNU354, SNU886, MHCC97H and huH-1, and the results were shown in Table 2 below: […]

[3] = Plasma stability test, human; type: in vitro ADME; details: 37° C.
Description: The pH of the plasma was checked and recorded. Note: a.
The final concentration of solvent was 0.5%.
The assay was performed in duplicate. […] The tubes were mixed by vortex for 5 minutes.

[4] = system: HuPrime model LI1005 human liver cancer; assay: In vivo pharmacodynamics, liver cancer LI1005 PDX model; parameters: species or system BALB/c nude mice; details: for Tumor volume (x ± S): in mm³ (unit assumed)
[5] = system: human lung cancer NCI-H460-Luc2 cells (intracranial); assay: In vivo pharmacodynamics, NCI-H460-Luc2 intracranial inoculation CDX model; parameters: species or system BALB/c nude mice; details: for Bioluminescence Value (Day 11) / T/C (%) / TGI (%): i.v. QWx3, Day 11
Description: The experiment was divided into groups of test drug Paclitaxel 20 mg/kg group, Compound A 2 mg/kg, 4 mg/kg and 8 mg/kg groups and 10% ethanol+10% polyoxyethylene castor oil+80% glucose injection DSW (pH 7.42) vehicle control group (Vehicle group), with 6 mice per group. […] The positive drug Paclitaxel 20 mg/kg group was administered by intraperitoneal injection and administered once a week for 3 weeks.
The pharmacodynamic analysis of each group in the human NCI-H460-luc intracranial inoculation model was performed based on the measured bioluminescence values on day 11 after administration, and the results were shown in Table 14.

[6] = 25° C. ± 2° C./60% ± 5% RH, 6 months
[7] = 40° C. ± 2° C./75% ± 5% RH, 6 months
[8] = 1.25 mg/kg, QDx5, 2 days off, 2 weeks off, QDx5, i.p., Day 35
[9] = 2.5 mg/kg, QDx5, 2 days off, 2 weeks off, QDx5, i.p., Day 35
[10] = 5 mg/kg, QDx5, 2 days off, 2 weeks off, QDx5, i.p., Day 35
[11] = 10 mg/kg, QWx2, 1 week off, QWx2, i.v., Day 35

In the case of O=[N+]([O-])c1ccc(C(OP(=O)(N2CC2)N2CC2)C(F)(F)F)cc1Oc1ccc(-c2ccc(F)cc2)c(F)c1 (racemic) [Compound A], the “Isomer peak A-P1” value ([1]; 0 month) is reported as 49.8%, the “Isomer peak A-P2” value ([1]; 0 month) is reported as 50.2% and the “Isomer peak A-P1” value ([1]; 5° C. ± 3° C., 6 months) is reported as 49.9%. The “Isomer peak A-P2” value ([1]; 5° C. ± 3° C., 6 months) was 50.1%, the Isomer transformation ([1]; 5° C. ± 3° C., 6 months) was 0.1% and the “properties and chirality after storage” value ([1]; 5° C., 25° C./60% RH, 40° C./75% RH, 6 months) was “essentially unchanged”. For the same compound, the “Isomer peak A-P1” value [1, 6] was 49.9%, the “Isomer peak A-P2” value [1, 6] was 50.1% and the Isomer transformation [1, 6] was 0.1%. For the same compound, the “Isomer peak A-P1” value [1, 7] was 49.9%, the “Isomer peak A-P2” value [1, 7] was 50.1% and the Isomer transformation [1, 7] was 0.1%. For the same compound, the IC50 ([2]; Homo sapiens, SNU-354) was 962 nM, the “ratio A/B” value ([2]; IC50 ratio) was 1.28 and the “ratio A/C” value ([2]; IC50 ratio) was 0.63. For the same compound, the “Percentage remaining after 2 hours in plasma” value ([3]; Human plasma, 5 μM) was 60.06%, the “remained in plasma after 2 hours” value ([3]; human plasma) was 60.06% and the Tumor volume ([4]; 1.25 mg/kg i.p., Day 0) was 102.66 mm^3. It also gave a Tumor volume ([4]; 1.25 mg/kg i.p., Day 3) of 157.94 mm^3, a Tumor volume ([4]; 1.25 mg/kg i.p., Day 7) of 198.68 mm^3 and a Tumor volume ([4]; 1.25 mg/kg i.p., Day 10) of 188.83 mm^3. It also gave a Tumor volume ([4]; 1.25 mg/kg i.p., Day 14) of 196.25 mm^3, a Tumor volume ([4]; 1.25 mg/kg i.p., Day 17) of 204.85 mm^3 and a Tumor volume ([4]; 1.25 mg/kg i.p., Day 21) of 228.87 mm^3. For the same compound, the Tumor volume ([4]; 1.25 mg/kg i.p., Day 24) was 256.49 mm^3, the Tumor volume ([4]; 1.25 mg/kg i.p., Day 28) was 246.26 mm^3 and the Tumor volume ([4]; 1.25 mg/kg i.p., Day 31) was 282.93 mm^3. The Tumor volume ([4]; 1.25 mg/kg i.p., Day 35) was 334.61 mm^3, the “Relative tumor volume (x ± S)” value [4, 8] was 3.28 ± 0.53 and the “T/C (%)” value [4, 8] was 32.47%. The “TGI (%)” value [4, 8] was 67.53%, the “Tumor volume (x ± S)” value [4, 8] was 334.61 ± 61.24 and the Tumor volume ([4]; 2.5 mg/kg i.p., Day 0) was 103.02 mm^3. It also gave a Tumor volume ([4]; 2.5 mg/kg i.p., Day 3) of 156.63 mm^3, a Tumor volume ([4]; 2.5 mg/kg i.p., Day 7) of 197.27 mm^3 and a Tumor volume ([4]; 2.5 mg/kg i.p., Day 10) of 156.39 mm^3. It also gave a Tumor volume ([4]; 2.5 mg/kg i.p., Day 14) of 147.34 mm^3, a Tumor volume ([4]; 2.5 mg/kg i.p., Day 17) of 148.94 mm^3 and a Tumor volume ([4]; 2.5 mg/kg i.p., Day 21) of 173.92 mm^3. It also gave a Tumor volume ([4]; 2.5 mg/kg i.p., Day 24) of 180.83 mm^3, a Tumor volume ([4]; 2.5 mg/kg i.p., Day 28) of 178.96 mm^3 and a Tumor volume ([4]; 2.5 mg/kg i.p., Day 31) of 182.98 mm^3. The Tumor volume ([4]; 2.5 mg/kg i.p., Day 35) was 178.69 mm^3, the “Relative tumor volume (x ± S)” value [4, 9] was 1.60 ± 0.42 and the “T/C (%)” value [4, 9] was 15.88%. The “TGI (%)” value [4, 9] was 84.12%, the “Tumor volume (x ± S)” value [4, 9] was 178.69 ± 65.98 and the Tumor volume ([4]; 5 mg/kg i.p., Day 0) was 103.15 mm^3. The Tumor volume ([4]; 5 mg/kg i.p., Day 3) was 160.80 mm^3, the Tumor volume ([4]; 5 mg/kg i.p., Day 7) was 167.82 mm^3 and the Tumor volume ([4]; 5 mg/kg i.p., Day 10) was 120.93 mm^3. It also gave a Tumor volume ([4]; 5 mg/kg i.p., Day 14) of 97.35 mm^3, a Tumor volume ([4]; 5 mg/kg i.p., Day 17) of 90.25 mm^3 and a Tumor volume ([4]; 5 mg/kg i.p., Day 21) of 106.81 mm^3. It also gave a Tumor volume ([4]; 5 mg/kg i.p., Day 24) of 115.29 mm^3, a Tumor volume ([4]; 5 mg/kg i.p., Day 28) of 110.01 mm^3 and a Tumor volume ([4]; 5 mg/kg i.p., Day 31) of 102.22 mm^3. For the same compound, the Tumor volume ([4]; 5 mg/kg i.p., Day 35) was 85.00 mm^3, the “Relative tumor volume (x ± S)” value [4, 10] was 0.77 ± 0.18 and the “T/C (%)” value [4, 10] was 7.62%. For the same compound, the “TGI (%)” value [4, 10] was 92.38%, the “Tumor volume (x ± S)” value [4, 10] was 85.00 ± 26.32 and the Tumor volume ([4]; 10 mg/kg i.v., Day 0) was 102.58 mm^3. For the same compound, the Tumor volume ([4]; 10 mg/kg i.v., Day 3) was 127.72 mm^3, the Tumor volume ([4]; 10 mg/kg i.v., Day 7) was 172.58 mm^3 and the Tumor volume ([4]; 10 mg/kg i.v., Day 10) was 138.61 mm^3. The Tumor volume ([4]; 10 mg/kg i.v., Day 14) was 127.60 mm^3, the Tumor volume ([4]; 10 mg/kg i.v., Day 17) was 132.95 mm^3 and the Tumor volume ([4]; 10 mg/kg i.v., Day 21) was 151.00 mm^3. It also gave a Tumor volume ([4]; 10 mg/kg i.v., Day 24) of 181.36 mm^3, a Tumor volume ([4]; 10 mg/kg i.v., Day 28) of 191.25 mm^3 and a Tumor volume ([4]; 10 mg/kg i.v., Day 31) of 186.25 mm^3. The Tumor volume ([4]; 10 mg/kg i.v., Day 35) was 179.97 mm^3, the “Relative tumor volume (x ± S)” value [4, 11] was 1.87 ± 0.54 and the “T/C (%)” value [4, 11] was 18.53%. For the same compound, the “TGI (%)” value [4, 11] was 81.47%, the “Tumor volume (x ± S)” value [4, 11] was 179.97 ± 51.38 and the “tolerability / body weight” value ([4]; Compound A 10, 1.25, 2.5, 5 mg/kg, Sorafenib 30 mg/kg) was “well tolerated”. For the same compound, the “Bioluminescence Value (Day 11)” value ([5]; 2 mg/kg) was 7.62 ± 2.10 ×10^5 photon/second, the “T/C (%)” value ([5]; 2 mg/kg) was 0.24% and the “TGI (%)” value ([5]; 2 mg/kg) was 99.80%. For the same compound, the “Bioluminescence Value (Day 11)” value ([5]; 4 mg/kg) was 1.62 ± 0.30 ×10^5 photon/second, the “T/C (%)” value ([5]; 4 mg/kg) was 0.05% and the “TGI (%)” value ([5]; 4 mg/kg) was 100.03%. For the same compound, the “Bioluminescence Value (Day 11)” value ([5]; 8 mg/kg) was 1.78 ± 0.42 ×10^5 photon/second, the “T/C (%)” value ([5]; 8 mg/kg) was 0.06% and the “TGI (%)” value ([5]; 8 mg/kg) was 100.03%. For the same compound, the body weight change ([5]; 2, 4, 8 mg/kg i.v.) was “little change”.
